Results from patent USRE47689E1, “Compounds for treating spinal muscular atrophy” (PTC Therapeutics, Inc., priority 2011, dated 2019).
Read-outs that look alike come from different tables or passages of the source.

Tests used:
[1] = test system: SMN2 minigene (full length SMN2 minigene mRNA containing SMN2 exon 7); assay: SMN2 minigene mRNA splicing RT-qPCR assay in cultured cells; format: cell-based, human; details: Homo sapiens, HEK293-H, read-out: EC1.5x for production of full length SMN2 mRNA
Method in brief: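 Read-out: full-length (exon 7-included) SMN2 minigene mRNA by multiplex RT-qPCR with GAPDH, efficiency-corrected (1+E)^−Ct, GAPDH-normalized and divided by vehicle. Stably transfected HEK293H cells, 24 h compound exposure, duplicates per concentration. Value is EC1.5x, reported as star ranges.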

Smn protein = Smn protein assay in cultured cells (SMN HTRF); format: cell-based, human; details: 48 hours; for EC1.5x (concentration giving 1.5-fold Smn protein increase): SMA Type 1 patient fibroblast cells (GM03813), 7-point concentration curve, SMN HTRF, concentration producing 1.5 times Smn protein vs DMSO vehicle control, read-out: EC1.5x for Smn protein expression; for maximum fold (Fold) increase of Smn protein: SMA patient fibroblast cells, 7-point concentration data, fold increase relative to vehicle control (SMN HTRF)
Method in brief: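 Lysates in RIPA with protease inhibitors are incubated overnight at room temperature with HTRF anti-SMN antibodies. EC1.5x is derived from fold increase in ΔF over vehicle.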

[2] = HEK293H cells stably transfected with SMN2-A minigene, 24 hours, 7-point concentration curve, 1.5-fold relative to vehicle-treated cells

Structure (SMILES)	EC (1.5-fold) [1, 2] [µM]	EC1.5x (concentration giving 1.5-fold Smn protein increase) (Smn protein) [nM]	maximum fold (Fold) increase of Smn protein (Smn protein)	melting point	EC (1.5-fold) ([1]; 24 h) [µM]
Cc1ccc2nc(-c3cc4ccc(CN(C)CCO)cc4oc3=O)cn2c1 [Cpd 148, 7-{[(2-hydroxyethyl)(methyl)amino]methyl}-3-(6-methylimidazo[1,2-a]pyridin-2-yl)-2H-chromen-2-one]	3 to 30	1000 to 3000	***** (fold increase >1.65)	166 to 169 °C	–
C[C@@H]1CN(c2ccc3cc(-c4cn5cc(F)cnc5n4)c(=O)oc3c2)CCN1 [Compound 481, 3-(6-fluoroimidazo[1,2-a]pyrimidin-2-yl)-7-[(3R)-3-methylpiperazin-1-yl]-2H-chromen-2-one]	1 to 3	–	* (maximum fold increase of ≤1.2)	232 to 236 °C	–
CN1CCN(c2ccc3cc(-c4cn5ccccc5n4)c(=O)oc3c2)CC1 [Compound 72, 3-(imidazo[1,2-a]pyridin-2-yl)-7-(4-methylpiperazin-1-yl)-2H-chromen-2-one]	0.3 to 1	300 to 1000	*** (fold increase between >1.35 and ≤1.5)	265 to 268 °C	–
Cc1cc(Cl)cn2cc(-c3cc4ccc(N5C[C@@H](C)N[C@@H](C)C5)cc4oc3=O)nc12 [Compound 265, 3-(6-chloro-8-methylimidazo[1,2-a]pyridin-2-yl)-7-[(3R,5S)-3,5-dimethylpiperazin-1-yl]-2H-chromen-2-one]	1 to 3	–	* (maximum fold increase of ≤1.2)	271 to 281 °C	–
Cc1cn2cc(-c3cc4ccc(OCCN5CC[C@@H](O)C5)cc4oc3=O)nc2c(C)n1 [Compound 941, 3-(6,8-dimethylimidazo[1,2-a]pyrazin-2-yl)-7-{2-[(3R)-3-hydroxypyrrolidin-1-yl]ethoxy}-2H-chromen-2-one]	< 0.1	1000 to 3000	**** (fold increase between >1.5 and ≤1.65)	195 to 202 °C	–
Cc1ccc2nc(-c3cc4ccc(N(C)C5CCN(C)CC5)cc4oc3=O)cn2c1 [Compound 282, 3-(6-methylimidazo[1,2-a]pyridin-2-yl)-7-[methyl(1-methylpiperidin-4-yl)amino]-2H-chromen-2-one]	–	–	* (maximum fold increase of ≤1.2)	181 to 184 °C	1 to 3
C[C@@H]1CN(c2ccc3cc(-c4cn5cccc(Cl)c5n4)c(=O)oc3c2)C[C@H](C)N1 [Compound 120, 3-(8-chloroimidazo[1,2-a]pyridin-2-yl)-7-[(3R,5S)-3,5-dimethylpiperazin-1-yl]-2H-chromen-2-one]	< 0.1	< 300	**** (fold increase between >1.5 and ≤1.65)	286 °C (dec.)	–
O=c1oc2cc(N3CCNCC3)ccc2cc1-c1ccn[nH]1 [Cpd 29, 7-(piperazin-1-yl)-3-(1H-pyrazol-5-yl)-2H-chromen-2-one]	–	–	** (fold increase between >1.2 and ≤1.35)	224 to 228 °C	3 to 30
CCN(CC)CCCCc1ccc2cc(-c3cn4cc(C)nc(C)c4n3)c(=O)oc2c1 [Compound 970, 7-[4-(diethylamino)butyl]-3-(6,8-dimethylimidazo[1,2-a]pyrazin-2-yl)-2H-chromen-2-one]	0.3 to 1	300 to 1000	***** (fold increase >1.65)	212 to 216 °C	–
C[C@@H]1CN(c2cc(F)c3cc(-c4cn5cccnc5n4)c(=O)oc3c2)C[C@H](C)N1 [Compound 352, 7-[(3R,5S)-3,5-dimethylpiperazin-1-yl]-5-fluoro-3-(imidazo[1,2-a]pyrimidin-2-yl)-2H-chromen-2-one]	0.1 to 0.3	–	* (maximum fold increase of ≤1.2)	290 to 292 °C	–
CCN1CCN(c2ccc3cc(-c4cc5ccccn5n4)c(=O)oc3c2)CC1 [Compound 194, 7-(4-ethylpiperazin-1-yl)-3-(pyrazolo[1,5-a]pyridin-2-yl)-2H-chromen-2-one]	0.3 to 1	–	* (maximum fold increase of ≤1.2)	246 to 248 °C	–
O=c1oc2cc(N3CCNCC3)cc(F)c2cc1-c1cn2ccsc2n1 [Compound 311, 5-fluoro-3-(imidazo[2,1-b][1,3]thiazol-6-yl)-7-(piperazin-1-yl)-2H-chromen-2-one]	< 0.1	1000 to 3000	*** (fold increase between >1.35 and ≤1.5)	278 to 283 °C	–
CN(C)Cc1ccc2cc(-c3nc4ccccc4s3)c(=O)oc2c1 [Compound 13, 3-(1,3-benzothiazol-2-yl)-7-[(dimethylamino)methyl]-2H-chromen-2-one]	1 to 3	–	** (fold increase between >1.2 and ≤1.35)	171 to 176 °C	–
CCN1C[C@@H]2C[C@H]1CN2c1ccc2cc(-c3cn4cc(Cl)nc(C)c4n3)c(=O)oc2c1 [Compound 791, 3-(6-chloro-8-methylimidazo[1,2-a]pyrazin-2-yl)-7-[(1S,4S)-5-ethyl-2,5-diazabicyclo[2.2.1]hept-2-yl]-2H-chromen-2-one]	< 0.1	1000 to 3000	*** (fold increase between >1.35 and ≤1.5)	135 to 138 °C	–
O=c1oc2cc(N3CCNCC3)ccc2cc1-c1cnccc1Cl [Compound 235, 3-(4-chloropyridin-3-yl)-7-(piperazin-1-yl)-2H-chromen-2-one]	–	–	* (maximum fold increase of ≤1.2)	175 to 177 °C	1 to 3
COc1ccc(-c2cc3ccc(N4C[C@@H](C)N[C@@H](C)C4)cc3oc2=O)cc1OC [Compound 384, 3-(3,4-dimethoxyphenyl)-7-[(3R,5S)-3,5-dimethylpiperazin-1-yl]-2H-chromen-2-one]	3 to 30	–	* (maximum fold increase of ≤1.2)	130 to 132 °C	–
C[C@@H]1CN(c2ccc3cc(-c4cn5cccc(F)c5n4)c(=O)oc3c2)CCN1 [Compound 530, 3-(8-fluoroimidazo[1,2-a]pyridin-2-yl)-7-[(3R)-3-methylpiperazin-1-yl]-2H-chromen-2-one]	0.3 to 1	< 300	**** (fold increase between >1.5 and ≤1.65)	226 to 228 °C	–
Cc1cn2cc(-c3cc4ccc(N5CCN(CCO)CC5)cc4oc3=O)nc2cn1 [Compound 837, 7-[4-(2-hydroxyethyl)piperazin-1-yl]-3-(6-methylimidazo[1,2-a]pyrazin-2-yl)-2H-chromen-2-one]	< 0.1	< 300	***** (fold increase >1.65)	246 to 252 °C	–
CCCN1CCN(c2ccc3cc(-c4cn5cccc(C)c5n4)c(=O)oc3c2)CC1 [Compound 101, 3-(8-methylimidazo[1,2-a]pyridin-2-yl)-7-(4-propylpiperazin-1-yl)-2H-chromen-2-one]	1 to 3	–	** (fold increase between >1.2 and ≤1.35)	249 to 251 °C	–
Cc1cn2cc(-c3cc4ccc(CCCCN(C)CCO)cc4oc3=O)nc2c(C)n1 [Compound 903, 3-(6,8-dimethylimidazo[1,2-a]pyrazin-2-yl)-7-{4-[(2-hydroxyethyl)(methyl)amino]butyl}-2H-chromen-2-one]	< 0.1	300 to 1000	**** (fold increase between >1.5 and ≤1.65)	156 to 160 °C	–
Cc1ccnc(Nc2cc3ccc(N4CCNCC4)cc3oc2=O)c1 [Compound 62, 3-[(4-methylpyridin-2-yl)amino]-7-(piperazin-1-yl)-2H-chromen-2-one]	1 to 3	–	* (maximum fold increase of ≤1.2)	182 to 185 °C	–
Cc1cccc2oc(-c3cc4ccc(N5C[C@@H](C)N[C@@H](C)C5)cc4oc3=O)nc12 [Compound 31, 7-[(3R,5S)-3,5-dimethylpiperazin-1-yl]-3-(4-methyl-1,3-benzoxazol-2-yl)-2H-chromen-2-one]	3 to 30	–	* (maximum fold increase of ≤1.2)	243 to 245 °C	–
CNCCCc1ccc2cc(-c3cc(F)c4nc(C)cn4c3)c(=O)oc2c1 [Compound 913, 3-(8-fluoro-2-methylimidazo[1,2-a]pyridin-6-yl)-7-[3-(methylamino)propyl]-2H-chromen-2-one]	< 0.1	< 300	***** (fold increase >1.65)	163 to 166 °C	–
